Measurements from the NIST ThermoML archive (doi:10.1016/j.tca.2014.05.028).
± gives the expanded uncertainty stated by the source.

Experiment: xn = mol fraction of the nth substance listed
Conditions: 101 kPa, Liquid; for viscosity: Falling or rolling sphere viscometry; for mass density: Vibrating tube method

CCCCC[N+]1(C)CCCC1.[Br-] [1-methyl-1-pentylpyrrolidinium bromide] + O
Conditions	mass density [kg/m3]	viscosity [mPa·s]
298.15 K, x1 = 0.0313	1054.87 ± 0.38	1.987 ± 0.12
298.15 K, x1 = 0.0592	1089.64 ± 0.29	3.402 ± 0.21
298.15 K, x1 = 0.0944	1119.19 ± 0.26	6.013 ± 0.36
298.15 K, x1 = 0.1301	1139.59 ± 0.25	10.08 ± 0.61
298.15 K, x1 = 0.1566	1150.73 ± 0.24	14.2 ± 0.86
298.15 K, x1 = 0.1964	1163.63 ± 0.24	22.59 ± 1.4
298.15 K, x1 = 0.2468	1175.13 ± 0.24	38.27 ± 2.3
298.15 K, x1 = 0.3028	1184.58 ± 0.25	66.43 ± 4
298.15 K, x1 = 0.3503	1190.28 ± 0.25	102.55 ± 6.6
298.15 K, x1 = 0.4097	1195.59 ± 0.26	175.43 ± 13
298.15 K, x1 = 0.445	1198.37 ± 0.27	241.18 ± 19
298.15 K, x1 = 1	1188.96 ± 0.4	–
303.15 K, x1 = 0.0313	1052.43 ± 0.37	1.728 ± 0.11
303.15 K, x1 = 0.0592	1086.59 ± 0.29	2.903 ± 0.18
303.15 K, x1 = 0.0944	1115.78 ± 0.26	5.036 ± 0.3
303.15 K, x1 = 0.1301	1136.1 ± 0.25	8.404 ± 0.51
303.15 K, x1 = 0.1566	1147.25 ± 0.24	11.61 ± 0.7
303.15 K, x1 = 0.1964	1160.15 ± 0.24	18.05 ± 1.1
303.15 K, x1 = 0.2468	1171.69 ± 0.24	29.76 ± 1.8
303.15 K, x1 = 0.3028	1181.21 ± 0.25	50.36 ± 3
303.15 K, x1 = 0.3503	1186.96 ± 0.25	76.83 ± 4.7
303.15 K, x1 = 0.4097	1192.35 ± 0.26	128.64 ± 8.6
303.15 K, x1 = 0.445	1195.15 ± 0.27	173.72 ± 12
303.15 K, x1 = 1	1185.14 ± 0.4	–
308.15 K, x1 = 0.0313	1049.86 ± 0.37	1.469 ± 0.089
308.15 K, x1 = 0.0592	1083.44 ± 0.29	2.433 ± 0.15
308.15 K, x1 = 0.0944	1112.34 ± 0.26	4.142 ± 0.25
308.15 K, x1 = 0.1301	1132.57 ± 0.24	6.871 ± 0.42
308.15 K, x1 = 0.1566	1143.72 ± 0.24	9.343 ± 0.56
308.15 K, x1 = 0.1964	1156.64 ± 0.24	14.22 ± 0.86
308.15 K, x1 = 0.2468	1168.24 ± 0.24	22.83 ± 1.4
308.15 K, x1 = 0.3028	1177.83 ± 0.25	37.83 ± 2.3
308.15 K, x1 = 0.3503	1183.64 ± 0.25	56.94 ± 3.4
308.15 K, x1 = 0.4097	1189.09 ± 0.26	93.53 ± 5.9
308.15 K, x1 = 0.445	1191.92 ± 0.27	124.68 ± 8.3
308.15 K, x1 = 1	1181.35 ± 0.4	–
313.15 K, x1 = 0.0313	1047.17 ± 0.36	1.288 ± 0.078
313.15 K, x1 = 0.0592	1080.23 ± 0.29	2.104 ± 0.13
313.15 K, x1 = 0.0944	1108.85 ± 0.26	3.523 ± 0.21
313.15 K, x1 = 0.1301	1129.01 ± 0.24	5.794 ± 0.35
313.15 K, x1 = 0.1566	1140.17 ± 0.24	7.793 ± 0.47
313.15 K, x1 = 0.1964	1153.12 ± 0.24	11.62 ± 0.7
313.15 K, x1 = 0.2468	1164.79 ± 0.24	18.25 ± 1.1
313.15 K, x1 = 0.3028	1174.44 ± 0.25	29.54 ± 1.8
313.15 K, x1 = 0.3503	1180.31 ± 0.25	43.93 ± 2.7
313.15 K, x1 = 0.4097	1185.82 ± 0.26	70.78 ± 4.3
313.15 K, x1 = 0.445	1188.67 ± 0.27	94.43 ± 6
313.15 K, x1 = 1	1177.58 ± 0.4	–
318.15 K, x1 = 0.0313	1044.36 ± 0.36	1.152 ± 0.07
318.15 K, x1 = 0.0592	1076.94 ± 0.29	1.849 ± 0.11
318.15 K, x1 = 0.0944	1105.32 ± 0.26	3.055 ± 0.18
318.15 K, x1 = 0.1301	1125.43 ± 0.24	4.98 ± 0.3
318.15 K, x1 = 0.1566	1136.58 ± 0.24	6.632 ± 0.4
318.15 K, x1 = 0.1964	1149.57 ± 0.24	9.734 ± 0.59
318.15 K, x1 = 0.2468	1161.33 ± 0.24	14.99 ± 0.91
318.15 K, x1 = 0.3028	1171.04 ± 0.24	23.75 ± 1.4
318.15 K, x1 = 0.3503	1176.97 ± 0.25	35.02 ± 2.1
318.15 K, x1 = 0.4097	1182.56 ± 0.26	55.19 ± 3.3
318.15 K, x1 = 0.445	1185.43 ± 0.26	73.04 ± 4.5
318.15 K, x1 = 1	1173.84 ± 0.39	–
323.15 K, x1 = 0.0313	1041.42 ± 0.36	1.018 ± 0.062
323.15 K, x1 = 0.0592	1073.59 ± 0.28	1.61 ± 0.097
323.15 K, x1 = 0.0944	1101.75 ± 0.26	2.62 ± 0.16
323.15 K, x1 = 0.1301	1121.81 ± 0.24	4.239 ± 0.26
323.15 K, x1 = 0.1566	1132.97 ± 0.24	5.594 ± 0.34
323.15 K, x1 = 0.1964	1146.01 ± 0.24	8.098 ± 0.49
323.15 K, x1 = 0.2468	1157.86 ± 0.24	12.24 ± 0.74
323.15 K, x1 = 0.3028	1167.63 ± 0.24	19.02 ± 1.1
323.15 K, x1 = 0.3503	1173.62 ± 0.25	27.61 ± 1.7
323.15 K, x1 = 0.4097	1179.3 ± 0.26	43.02 ± 2.6
323.15 K, x1 = 0.445	1182.19 ± 0.26	56.06 ± 3.4
323.15 K, x1 = 1	1170.12 ± 0.39	–
328.15 K, x1 = 0.0313	1038.21 ± 0.35	0.901 ± 0.055
328.15 K, x1 = 0.0592	1070.18 ± 0.28	1.406 ± 0.085
328.15 K, x1 = 0.0944	1098.14 ± 0.25	2.253 ± 0.14
328.15 K, x1 = 0.1301	1118.16 ± 0.24	3.594 ± 0.22
328.15 K, x1 = 0.1566	1129.34 ± 0.23	4.737 ± 0.29
328.15 K, x1 = 0.1964	1142.42 ± 0.23	6.779 ± 0.41
328.15 K, x1 = 0.2468	1154.37 ± 0.24	10.1 ± 0.61
328.15 K, x1 = 0.3028	1164.2 ± 0.24	15.38 ± 0.93
328.15 K, x1 = 0.3503	1170.27 ± 0.25	22.07 ± 1.3
328.15 K, x1 = 0.4097	1176.04 ± 0.26	33.82 ± 2.1
328.15 K, x1 = 0.445	1178.95 ± 0.26	43.84 ± 2.6
328.15 K, x1 = 1	1166.42 ± 0.39	–
333.15 K, x1 = 0.0313	1034.52 ± 0.35	0.806 ± 0.049
333.15 K, x1 = 0.0592	1066.7 ± 0.28	1.238 ± 0.075
333.15 K, x1 = 0.0944	1094.49 ± 0.25	1.961 ± 0.12
333.15 K, x1 = 0.1301	1114.49 ± 0.24	3.084 ± 0.19
333.15 K, x1 = 0.1566	1125.68 ± 0.23	4.048 ± 0.24
333.15 K, x1 = 0.1964	1138.81 ± 0.23	5.734 ± 0.35
333.15 K, x1 = 0.2468	1150.85 ± 0.24	8.449 ± 0.51
333.15 K, x1 = 0.3028	1160.77 ± 0.24	12.68 ± 0.77
333.15 K, x1 = 0.3503	1166.91 ± 0.25	18.16 ± 1.1
333.15 K, x1 = 0.4097	1172.78 ± 0.26	27.16 ± 1.6
333.15 K, x1 = 0.445	1175.7 ± 0.26	35.05 ± 2.1
333.15 K, x1 = 1	1162.75 ± 0.39	–
338.15 K, x1 = 0.0313	1031.9 ± 0.35	0.735 ± 0.044
338.15 K, x1 = 0.0592	1063.16 ± 0.28	1.117 ± 0.068
338.15 K, x1 = 0.0944	1090.8 ± 0.25	1.75 ± 0.11
338.15 K, x1 = 0.1301	1110.78 ± 0.24	2.707 ± 0.16
338.15 K, x1 = 0.1566	1121.99 ± 0.23	3.551 ± 0.21
338.15 K, x1 = 0.1964	1135.18 ± 0.23	4.983 ± 0.3
338.15 K, x1 = 0.2468	1147.32 ± 0.24	7.259 ± 0.44
338.15 K, x1 = 0.3028	1157.32 ± 0.24	10.76 ± 0.65
338.15 K, x1 = 0.3503	1163.54 ± 0.25	15.24 ± 0.92
338.15 K, x1 = 0.4097	1169.46 ± 0.26	22.53 ± 1.4
338.15 K, x1 = 0.445	1172.45 ± 0.26	28.48 ± 1.7
338.15 K, x1 = 1	1159.1 ± 0.38	–
343.15 K, x1 = 0.0313	1026.38 ± 0.35	0.661 ± 0.04
343.15 K, x1 = 0.0592	1059.56 ± 0.29	0.991 ± 0.06
343.15 K, x1 = 0.0944	1087.07 ± 0.25	1.532 ± 0.093
343.15 K, x1 = 0.1301	1107.04 ± 0.24	2.328 ± 0.14
343.15 K, x1 = 0.1566	1118.28 ± 0.23	3.039 ± 0.18
343.15 K, x1 = 0.1964	1131.53 ± 0.23	4.253 ± 0.26
343.15 K, x1 = 0.2468	1143.76 ± 0.24	6.138 ± 0.37
343.15 K, x1 = 0.3028	1153.87 ± 0.24	9.006 ± 0.55
343.15 K, x1 = 0.3503	1160.16 ± 0.25	12.52 ± 0.76
343.15 K, x1 = 0.4097	1166.21 ± 0.25	18.43 ± 1.1
343.15 K, x1 = 0.445	1169.19 ± 0.26	22.9 ± 1.4
343.15 K, x1 = 1	1155.48 ± 0.38	–
